Source: the supplement of paper PMC10307832

Columns and labels:
Test in all cases: relative viability (nuclei count vs DMSO), 5 days (fraction); higher = more cells survive
NCI-H1651 = tested on: NCI-H1651
How it was run: (§1)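 Lung cancer cell lines were seeded in 1536-well plates and dosed by pin tool the next day, with either a single drug or a fixed anchor-drug dose combined with five library-drug doses (not always all listed) spaced in √10 steps. Five days later, one step fixed the cells and stained their nuclei (final 0.05% Triton X-100, 1% formaldehyde, 1 ug/ml Hoechst), and nuclei were counted on 4× images. Relative viability is the nuclei count in treated wells divided by the count in vehicle wells, and each value is the median of duplicate plates.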

NCI-H2085 = tested on: NCI-H2085
How it was run: as §1

NCI-H2087 = tested on: NCI-H2087
How it was run: as §1

NCI-H322M = tested on: NCI-H322M
How it was run: as §1

PC-14 = tested on: PC-14
How it was run: as §1

PC-3 [JPC-3] = tested on: PC-3 [JPC-3]
How it was run: as §1

H3255 = tested on: H3255
How it was run: as §1

CAL-12T = tested on: CAL-12T
How it was run: as §1

LCLC-97TM1 = tested on: LCLC-97TM1
How it was run: as §1

NCI-H1666 = tested on: NCI-H1666
How it was run: as §1

NCI-H1395 = tested on: NCI-H1395
How it was run: as §1

LK-2 = tested on: LK-2
How it was run: as §1

SK-MES-1 = tested on: SK-MES-1
How it was run: as §1

NCI-H1355 = tested on: NCI-H1355
How it was run: as §1

A-427 = tested on: A-427
How it was run: as §1

UMC-11 = tested on: UMC-11
How it was run: as §1

NCI-H1792 = tested on: NCI-H1792
How it was run: as §1

NCI-H2228 = tested on: NCI-H2228
How it was run: as §1

NCI-H838 = tested on: NCI-H838
How it was run: as §1

NCI-H1915 = tested on: NCI-H1915
How it was run: as §1

## O=C(O)CCCCC(CCSCc1ccccc1)SCc1ccccc1 (stereo not given) [CPI-613] + CC1(C)CCC(c2ccc(Cl)cc2)=C(CN2CCN(c3ccc(C(=O)NS(=O)(=O)c4ccc(N[C@H](CCN5CCOCC5)CSc5ccccc5)c(S(=O)(=O)C(F)(F)F)c4)cc3)CC2)C1 [Navitoclax] (partner 0.5 µM)
NCI-H1651; first compound 5 µM
  relative viability: 1.04
NCI-H1651; first compound 15.81 µM
  relative viability: 0.866
NCI-H1651; first compound 50 µM
  relative viability: 1
NCI-H1651; first compound 158.11 µM
  relative viability: 0.17
NCI-H1651; first compound 500 µM
  relative viability: 0.152
NCI-H2085; first compound 5 µM
  relative viability: 0.988
NCI-H2085; first compound 15.81 µM
  relative viability: 1.04
NCI-H2085; first compound 50 µM
  relative viability: 1.07
NCI-H2085; first compound 158.11 µM
  relative viability: 0.543
NCI-H2085; first compound 500 µM
  relative viability: 0.196
NCI-H2087; first compound 5 µM
  relative viability: 1.03
NCI-H2087; first compound 15.81 µM
  relative viability: 0.953
NCI-H2087; first compound 50 µM
  relative viability: 0.926
NCI-H2087; first compound 158.11 µM
  relative viability: 0.135
NCI-H2087; first compound 500 µM
  relative viability: 0.0127
NCI-H322M; first compound 5 µM
  relative viability: 1.21
NCI-H322M; first compound 15.81 µM
  relative viability: 1.17
NCI-H322M; first compound 50 µM
  relative viability: 1.27
NCI-H322M; first compound 158.11 µM
  relative viability: 1.05
NCI-H322M; first compound 500 µM
  relative viability: 0.982
PC-14; first compound 5 µM
  relative viability: 1
PC-14; first compound 15.81 µM
  relative viability: 1.05
PC-14; first compound 50 µM
  relative viability: 1
PC-14; first compound 158.11 µM
  relative viability: 0.869
PC-14; first compound 500 µM
  relative viability: 1.16
PC-3 [JPC-3]; first compound 5 µM
  relative viability: 0.819
PC-3 [JPC-3]; first compound 15.81 µM
  relative viability: 0.7
PC-3 [JPC-3]; first compound 50 µM
  relative viability: 0.696
PC-3 [JPC-3]; first compound 158.11 µM
  relative viability: 0.448
PC-3 [JPC-3]; first compound 500 µM
  relative viability: 0.469
H3255; first compound 5 µM
  relative viability: 0.497
H3255; first compound 15.81 µM
  relative viability: 0.476
H3255; first compound 50 µM
  relative viability: 0.337
H3255; first compound 158.11 µM
  relative viability: 0.498
H3255; first compound 500 µM
  relative viability: 0.562
CAL-12T; first compound 5 µM
  relative viability: 1.17
CAL-12T; first compound 15.81 µM
  relative viability: 0.967
CAL-12T; first compound 50 µM
  relative viability: 0.965
CAL-12T; first compound 158.11 µM
  relative viability: 0.0606
CAL-12T; first compound 500 µM
  relative viability: 0.0373
LCLC-97TM1; first compound 5 µM
  relative viability: 0.299
LCLC-97TM1; first compound 15.81 µM
  relative viability: 0.502
LCLC-97TM1; first compound 50 µM
  relative viability: 0.658
LCLC-97TM1; first compound 158.11 µM
  relative viability: 0.079
LCLC-97TM1; first compound 500 µM
  relative viability: 0.0431
NCI-H1666; first compound 5 µM
  relative viability: 0.944
NCI-H1666; first compound 15.81 µM
  relative viability: 1.16
NCI-H1666; first compound 50 µM
  relative viability: 1.03
NCI-H1666; first compound 158.11 µM
  relative viability: 0.296
NCI-H1666; first compound 500 µM
  relative viability: 0.212
NCI-H1395; first compound 5 µM
  relative viability: 1.48
NCI-H1395; first compound 15.81 µM
  relative viability: 1.03
NCI-H1395; first compound 50 µM
  relative viability: 1.08
NCI-H1395; first compound 158.11 µM
  relative viability: 1.16
NCI-H1395; first compound 500 µM
  relative viability: 0.961
LK-2; first compound 5 µM
  relative viability: 0.957
LK-2; first compound 15.81 µM
  relative viability: 0.922
LK-2; first compound 50 µM
  relative viability: 1.05
LK-2; first compound 158.11 µM
  relative viability: 0.966
LK-2; first compound 500 µM
  relative viability: 0.87
SK-MES-1; first compound 5 µM
  relative viability: 1.08
SK-MES-1; first compound 15.81 µM
  relative viability: 1.17
SK-MES-1; first compound 50 µM
  relative viability: 1.1
SK-MES-1; first compound 158.11 µM
  relative viability: 1.03
SK-MES-1; first compound 500 µM
  relative viability: 1
NCI-H1355; first compound 5 µM
  relative viability: 0.993
NCI-H1355; first compound 15.81 µM
  relative viability: 0.988
NCI-H1355; first compound 50 µM
  relative viability: 1
NCI-H1355; first compound 158.11 µM
  relative viability: 0.593
NCI-H1355; first compound 500 µM
  relative viability: 0.128
A-427; first compound 5 µM
  relative viability: 0.974
A-427; first compound 15.81 µM
  relative viability: 0.919
A-427; first compound 50 µM
  relative viability: 0.829
A-427; first compound 158.11 µM
  relative viability: 0.342
A-427; first compound 500 µM
  relative viability: 0.273
UMC-11; first compound 5 µM
  relative viability: 0.28
UMC-11; first compound 15.81 µM
  relative viability: 0.324
UMC-11; first compound 50 µM
  relative viability: 0.278
UMC-11; first compound 158.11 µM
  relative viability: 0.143
UMC-11; first compound 500 µM
  relative viability: 0.0935
NCI-H1792; first compound 5 µM
  relative viability: 0.518
NCI-H1792; first compound 15.81 µM
  relative viability: 0.595
NCI-H1792; first compound 50 µM
  relative viability: 0.603
NCI-H1792; first compound 158.11 µM
  relative viability: 0.411
NCI-H1792; first compound 500 µM
  relative viability: 0.601
NCI-H2228; first compound 5 µM
  relative viability: 1.04
NCI-H2228; first compound 15.81 µM
  relative viability: 0.755
NCI-H2228; first compound 50 µM
  relative viability: 0.758
NCI-H2228; first compound 158.11 µM
  relative viability: 0.297
NCI-H2228; first compound 500 µM
  relative viability: 0.0138
NCI-H838; first compound 5 µM
  relative viability: 1.12
NCI-H838; first compound 15.81 µM
  relative viability: 1.01
NCI-H838; first compound 50 µM
  relative viability: 1.03
NCI-H838; first compound 158.11 µM
  relative viability: 0.39
NCI-H838; first compound 500 µM
  relative viability: 0.113
NCI-H1915; first compound 5 µM
  relative viability: 0.781
NCI-H1915; first compound 15.81 µM
  relative viability: 0.778
NCI-H1915; first compound 50 µM
  relative viability: 0.724
NCI-H1915; first compound 158.11 µM
  relative viability: 0.552
NCI-H1915; first compound 500 µM
  relative viability: 0.55
